# Data as given in publication PMC5601486, “Identification of 4-phenylquinolin-2(1H)-one as a specific allosteric inhibitor of Akt” (Scientific Reports, 2017).
# Like-named read-outs stand apart in the source and are kept apart here.
# Key:
# Neuro 2A cells = experiment: MTS cell proliferation assay; format: cell-based, Mouse; settings: 1 day
# Protocol: (§1) Neuro 2A cells or NIH/3T3 cells (ATCC) were seeded at various confluency in a 96-well plate in 100 µL DMEM containing 5% FBS or 10% FBS with 1% penicillin streptomucin, respectively, at 37 °C in a 5% CO2 and 95% humidity incubator for 18 hr. To each well 1 µL inhibitor with various concentrations or DMSO was added. The final concentrations of the tested inhibitors were 0, 5, 10, 20, 40 and 80 µM for G7 and LY, and 0, 5, 10, 20, 40 and 80 nM for Torin1, based on their respective IC50 values (~µM for G7 and LY and ~ nM for Torin 1). After 24 hr, 20 µL of CellTiter 96® AQueous One Solution Reagent (Promega) were added. The plate was placed in the incubator for 2 h and absorbance at 490 nm was measured with a Synergy HT Microplate Reader (Bio-Tek).
# Akt S473 phosphorylation = experiment: pS473-Akt HTRF assay; format: cell-based, Mouse; settings: Mus musculus, N2a, Neuro 2A cells
# Protocol: Neuro 2A cells were seeded (4,000 cells/well) in 4 µL of DMEM with 0.5% FBS and 1x Penicillin/Streptomycin in white solid bottom tissue-culture treated 1536-well plates (Greiner, 789173-F) with MultiDrop Combi Dispenser (Thermo Scientific). The cells were incubated for 24 h at 37 °C, 5% CO2, 95% humidity. Twenty-three nL of tested compounds were transferred to each well with an automated pin-tool station (Kalypsys). Following incubation for 15 min at 37 °C, 0.5 µL IGF (500 ng/mL of final concentration) was added and incubated for additional 40 min at 37 °C. After the addition of 1.5 µL 4x lysis buffer and 15-min incubation at room temperature (25 °C), 2 µL of HTRF® conjugated antibodies (fluorophore d2 conjugated anti-Akt monoclonal antibody and Europium^3+ cryptate-labeled anti-pS473-Akt monoclonal antibody, obtained from CisBio, 1:80 dilution) were added with BioRAPTR FRD™ (Beckman Coulter). The plates were incubated at room temperature for 20 h. The signal was measured by EnVision Multilabel Plate Reader (PerkinElmer) with excitation at 330 nm, emission at 620 nm (donor) and 665 nm (acceptor). Results were calculated and analyzed in a format of the ratio 665 nm/620 nm multiplied by 10^4.
# Relative activity was calculated by normalizing each HTRF signal from each sample well to the mean HTRF signal from the DMSO-only control wells.
# The Library of Pharmacologically Active Compounds (LOPAC, 1280 compounds) and the Molecular Library Small Molecular Repository Library (MLSMR, 373,868 compounds) were obtained from Sigma-Aldrich.
# Quantitative HTS (qHTS) and curve response class classification
# The qHTS screen was performed as described previously1. Each compound was titrated in seven concentrations. The final concentrations of the compounds assayed ranged from 4.9 nM to 76.6 µM. The curve response classifications (CRC), which can be used to depict potency, efficacy and reliability of the data, and to estimate an IC50 value, were determined by a customized software2. […]
# Sigma-Aldrich) and the basal response (0% inhibition) was set to the DMSO control.
# Efficacy of a compound refers to the highest response normalized to the maximal response of LY. The CRCs were grouped into 4 categories. Class 1 are well-fit and have both upper and lower asymptotes with efficacy greater than 30%
# (Class1.1, >80% efficacy; Class 1.2; 30-80% efficacy). Class 2 are incomplete with only one asy mptote (Class 2.1, > 80% efficacy; Class 2.2, 30-80% % efficacy). Class 3 display activity only at the highest concentrations and efficacy >30%. Class 4 are with low efficacy (<30%) or no response and considered inactive3.
# LNCaP cells = experiment: MTS cell proliferation assay; format: cell-based; settings: 1 day, 40% confluent
# Protocol: as §1
# Fig. S8. Effect of G7 on proliferation of LNCaP cells. Cells that were 40% confluent in RPMI-1640 medium containing 10% FBS were treated with inhibitors for 1 day and subjected to MTS assays. *, µM for both G7 and LY and nM for Torin1. Data represent means ± SEM (n=3). G7, 4-phenylquinolin-2(1H)-one, LY, LY294002.
# Akt = target: T1, Akt (Mus musculus, UniProt P31750); experiment: Akt activity assay (immunoprecipitated Akt, K-Lisa); format: cell-based; settings: LY at 125 µM
# T1 construct: subjected to immunoprecipitation using protein G-plus and anti-AKT PH domain (Millipore); endogenous in cells; host or cells: Neuro 2A (mouse neuroblastoma), IGF-stimulated
# T1 sequence (P31750 whole entry, the tested form may be a part): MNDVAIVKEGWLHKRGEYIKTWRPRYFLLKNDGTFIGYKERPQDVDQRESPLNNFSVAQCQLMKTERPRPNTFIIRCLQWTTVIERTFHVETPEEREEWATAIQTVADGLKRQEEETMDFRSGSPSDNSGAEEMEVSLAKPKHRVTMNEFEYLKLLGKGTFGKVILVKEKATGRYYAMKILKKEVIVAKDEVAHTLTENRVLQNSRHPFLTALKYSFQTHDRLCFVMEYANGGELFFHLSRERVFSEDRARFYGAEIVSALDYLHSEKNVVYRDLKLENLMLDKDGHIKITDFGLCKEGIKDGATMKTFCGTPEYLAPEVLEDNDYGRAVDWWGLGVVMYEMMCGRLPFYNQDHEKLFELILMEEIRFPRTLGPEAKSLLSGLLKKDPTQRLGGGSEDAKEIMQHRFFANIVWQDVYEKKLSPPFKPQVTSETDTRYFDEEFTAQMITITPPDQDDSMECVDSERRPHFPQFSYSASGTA
# Protocol: After overnight starvation by incubating with serum-free DMEM, Neuro 2A cells were treated with compound G7 at various concentrations for 30 min at room temperature followed by stimulation with IGF (final concentration of 100 ng/mL) for 30 min. Cells were lysed with lysis buffer containing 1% Triton X-100 and protease/phosphatase inhibitors (Cell Signaling Technology) and subjected to immunoprecipitation using protein G-plus and anti-AKT PH domain (Millipore). The activity of the immunopurified Akt was evaluated using a K-Lisa Akt activity kit (Millipore) in accordance with manufacturer’s instructions. The activity was normalized to Akt level in the immunoprecipitates determined by quantitative western blot analysis.
# mTORC2 = test system: mTORC2; set-up: method as in PMID 22614243; settings: cited from earlier work
"IC50 (Akt S473 phosphorylation; inhibitor 15 min before IGF, read-out: IC50)",inhibition at 125 µM (Akt),"IC50 (Akt S473 phosphorylation; 384-well format, read-out: IC50)","IC50 (Akt S473 phosphorylation; 1536-well, inhibitor 15 min before IGF, read-out: apparent IC50)",SMILES,proliferation of Neuro 2A cells (Neuro 2A cells),proliferation of LNCaP prostate cancer cells (LNCaP cells),effect on mTORC2 activity (mTORC2)
25000 nM,~90%,,,"O=c1cc(N2CCOCC2)oc2c(-c3ccccc3)cccc12 [LY294002, 2-(4-morpholinyl)-8-phenyl-4H-1-benzopyran-4-one]",inhibited the proliferation,inhibited the proliferation,
,,,,NC1(c2ccc(-c3nc4ccn5c(=O)[nH]nc5c4cc3-c3ccccc3)cc2)CCC1 [MK-2206],,,decrease mTORC2 activity
,,20 nM,~20 nM,"CCC(=O)N1CCN(c2ccc(-n3c(=O)ccc4cnc5ccc(-c6cnc7ccccc7c6)cc5c43)cc2C(F)(F)F)CC1 [Torin 1, 1-(4-(4-Propionylpiperazin-1-yl)-3-(trifluoromethyl)phenyl)-9-(quinolin-3-yl)benzo[h][1,6]naphthyridin-2(1H)-one]",inhibited the proliferation,inhibited the proliferation,
